Test results as given in patent publication US20110256115A1, “HYDROSOLUBLE [6)O-ALPHA-D-GLCP-(1->]N-6-O-BETA-D-GLCP-(1->-PHENOLIC DERIVATIVES WITH DERMOCOSMETIC, NUTRITIONAL AND THERAPEUTIC APPLICATIONS, AND COMPOSITIONS CONTAINING SAID WATER SOLUBLE COMPOUNDS” (Libragen, priority 2008, published 2011).
“And” between values parts separate entries of the source, which are not always exact repeats. Identical values can stand only once.

Experiment: Compared solubility in water
Type: physicochemical
Details: for B = solubility in water of O-β-D-Glcp-(1→-phenolic compound) / solubility: water saturated solution; for B = solubility in water of O-β-D-Glcp-(1→-phenolic compound) / solubility / A = solubility in water of [6)-O-α-D-Glcp-(1→]1-6-O-β-D-Glcp-(1→-phenolic compound: pH 4.0 to 5.0, no buffer added, 25° C.; for solubility: thermodynamic from solid, read-out: B = solubility in water of O-β-D-Glcp-(1→-phenolic compound); for % of solubility increase = (A − B)/B × 100: versus corresponding O-β-D-Glcp-(1→-phenolic compound); for A = solubility in water of [6)-O-α-D-Glcp-(1→]1-6-O-β-D-Glcp-(1→-phenolic compound: minimal solubility from concentrated syrup
Description: The phenolic compounds derivatives of the present invention have an improved solubility in water of at least 50% to 5000% as compared to the corresponding 0-β-D-Glcp-(14)-phenolic compound in the same physiological conditions, more preferably at least 50%, 100%, 200%, 400%, 800%, 1000%, 2000%, 3000%, 4000% or 5000%. Solubility of a phenolic compound derivative can be estimated by preparing a saturated water solution of said phenolic compound derivative. Excess solid form of phenolic compound derivative is eliminated by high speed centrifugation and concentration of compound A in the supernatant is estimated by HPLC using appropriate references (see above §‘Prepation of derivative’ for HPLC conditions example). Solubility difference is calculated with formula: […]
For this purpose, these [6)-O-α-D-Glcp-(1→]n-6-O-β-D-Glcp-(1→-phenolic derivatives have been prepared as described in example 1, and concentrated as described in EP2007/055815. The resulting concentrated syrup obtained after purification of these [6)-O-α-D-Glcp-(1→]1-6-O-β-D-Glcp-(1→-phenolic derivatives has been diluted and analyzed by HPLC to estimate the content of soluble [6)-O-α-D-Glcp-(1→]1-6-O-β-D-Glcp-(1→-phenolic derivatives.
In parallel, an excess amount of each corresponding β-D-Glcp-(1→-phenolic derivatives has been diluted in water to enable the preparation of water saturated solutions of these compounds. After high speed centrifugation to remove the excess of solid material, the supernatant of these saturated solutions has been analyzed by HPLC to estimate the content of soluble O-β-D-Glcp-(1→-phenolic derivatives.
Nota: One should notice that solubility of the [6)-O-α-D-Glcp-(1→]1-6-O-(3-D-Glcp-(1→-phenolic derivatives is considered as a minimal solubility as concentration of the initial syrups have not been tested.

Molecule: COc1ccc(/C=C/c2cc(O)cc(O[C@@H]3O[C@H](CO)[C@@H](O)[C@H](O)[C@H]3O)c2)cc1 [Deoxyrhapontin, 3,5-dihydroxy-4′-methoxystilbene-3-O-β-D-glucopyranoside, reference compound]
- B = solubility in water of O-β-D-Glcp-(1→-phenolic compound): 0.3 g/L and 0.7 mM

Molecule: OC[C@H]1O[C@@H](Oc2cc(O)cc(C=Cc3ccc(O)cc3)c2)[C@H](O)[C@@H](O)[C@@H]1O [O-β-D-Glcp-(1→-resveratrol, Resveratrol-3-O-β-D-glucopyranoside, reference compound]
- solubility: 1200 µg/mL and 3100 µM

Molecule: O=C(CCc1ccc(O)cc1)c1c(O)cc(O)cc1O[C@@H]1O[C@H](CO)[C@@H](O)[C@H](O)[C@H]1O [Phloridzin, Phloretin-2′-O-β-D-glucopyranoside, reference compound]
- solubility: 1100 µg/mL and 2500 µM

Molecule: COc1ccc(C=Cc2cc(O)cc(O[C@@H]3O[C@H](CO)[C@@H](O)[C@H](O)[C@H]3O)c2)cc1O [Rhapontin, 4′-methoxy-3,3′,5-stilbenetriol-3-O-β-D-glucopyranoside, reference compound]
- solubility: 300 µg/mL and 700 µM

Molecule: O=C(CCc1ccc(O)cc1)c1c(O)cc(O)cc1O[C@@H]1O[C@H](CO[C@H]2O[C@H](CO)[C@@H](O)[C@H](O)[C@H]2O)[C@@H](O)[C@H](O)[C@H]1O [[6)-O-α-D-Glcp-(1→]1-6-O^2′-β-D-Glcp-(1→-phloretin]
- % of solubility increase = (A − B)/B × 100 (In g/L): Higher than 4750%
- % of solubility increase = (A − B)/B × 100 (In mM): Higher than 3450%
- A = solubility in water of [6)-O-α-D-Glcp-(1→]1-6-O-β-D-Glcp-(1→-phenolic compound: > 53.3 g/L and > 89.1 mM

Molecule: COc1ccc(C=Cc2cc(O)cc(O[C@@H]3O[C@H](CO[C@H]4O[C@H](CO)[C@@H](O)[C@H](O)[C@H]4O)[C@@H](O)[C@H](O)[C@H]3O)c2)cc1 [[6)-O-α-D-Glcp-(1→]1-6-O^3-β-D-Glcp-(1→-3,5-dihydroxy-4′-methoxystilbene]
- % of solubility increase = (A − B)/B × 100 (In g/L): Higher than 2700%
- % of solubility increase = (A − B)/B × 100 (In mM): Higher than 2000%
- A = solubility in water of [6)-O-α-D-Glcp-(1→]1-6-O-β-D-Glcp-(1→-phenolic compound: > 8.5 g/L and > 15.0 mM

Molecule: COc1ccc(C=Cc2cc(O)cc(O[C@@H]3O[C@H](CO[C@H]4O[C@H](CO)[C@@H](O)[C@H](O)[C@H]4O)[C@@H](O)[C@H](O)[C@H]3O)c2)cc1O [[6)-O-α-D-Glcp-(1→]1-6-O^3-β-D-Glcp-(1→-4′-methoxy-3,3′,5-stilbenetriol]
- % of solubility increase = (A − B)/B × 100 (In g/L): Higher than 5400%
- % of solubility increase = (A − B)/B × 100 (In mM): Higher than 3950%
- A = solubility in water of [6)-O-α-D-Glcp-(1→]1-6-O-β-D-Glcp-(1→-phenolic compound: > 16.6 g/L and > 28.5 mM

Molecule: OC[C@H]1O[C@H](OC[C@H]2O[C@@H](Oc3cc(O)cc(/C=C/c4ccc(O)cc4)c3)[C@H](O)[C@@H](O)[C@@H]2O)[C@H](O)[C@@H](O)[C@@H]1O [[6)-O-α-D-Glcp-(1→]1-6-O^3-β-D-Glcp-(1→-resveratrol]
- % of solubility increase = (A − B)/B × 100 (In g/L): Higher than 5300%
- % of solubility increase = (A − B)/B × 100 (In mM): Higher than 3650%
- A = solubility in water of [6)-O-α-D-Glcp-(1→]1-6-O-β-D-Glcp-(1→-phenolic compound: > 65.0 g/L and > 117.6 mM

Molecule: O=c1ccc2cc(O[C@@H]3O[C@H](CO[C@H]4O[C@H](CO)[C@@H](O)[C@H](O)[C@H]4O)[C@@H](O)[C@H](O)[C@H]3O)c(O)cc2o1 [[6)-O-α-D-Glcp-(1→]1-6-O^6-β-D-Glcp-(1→-esculetin]
- % of solubility increase = (A − B)/B × 100 (In g/L): Higher than 850%
- % of solubility increase = (A − B)/B × 100 (In mM): Higher than 550%
- A = solubility in water of [6)-O-α-D-Glcp-(1→]1-6-O-β-D-Glcp-(1→-phenolic compound: > 12.5 g/L and > 24.9 mM

Molecule: Esculetin-6-O-β-D-glucopyranoside [Esculin, reference compound]
- B = solubility in water of O-β-D-Glcp-(1→-phenolic compound): 1.3 g/L and 3.8 mM
